Measurements taken from patent US11319299B2, “Substituted carboxamides as inhibitors of WDR5 protein-protein binding” (PROPELLON THERAPEUTICS INC., priority 2016, dated 2022).
pKd: −log10 of the molar value.

biological target: WDR5 (Homo sapiens (Human), UniProt P61964); experiment: Surface Plasmon Resonance (SPR) assay, KD and residence time; type: binding; details: surface plasmon resonance (SPR); read-out: WDR5 binding affinity (KD)

In order of falling pKd:
1. C[C@@H]1CN(c2cc(F)c(-c3ccc(C(=O)N(C)CC4CC4)c(F)c3)cc2NC(=O)c2c[nH]c(=O)cc2C(F)(F)F)C[C@H](C)N1C [Example 733, N-[5-[4-[cyclopropylmethyl(methyl)carbamoyl]-3-fluorophenyl]-4-fluoro-2-[(3R,5S)-3,4,5-trimethylpiperazin-1-yl]phenyl]-6-oxo-4-(trifluoromethyl)-1H-pyridine-3-carboxamide]  8.89
2. CC(C)OC(=O)N1CCC=C(c2cc(NC(=O)c3c[nH]c(=O)cc3C(F)F)c(N3C[C@@H](C)N(C)[C@@H](C)C3)cc2F)C1 [Example 725, propan-2-yl 5-[5-[[4-(difluoromethyl)-6-oxo-1H-pyridine-3-carbonyl]amino]-2-fluoro-4-[(3R,5S)-3,4,5-trimethylpiperazin-1-yl]phenyl]-3,6-dihydro-2H-pyridine-1-carboxylate]  8.80
3. C[C@@H]1CN(c2cc(F)c(-c3nc(CN4CCOCC4)cs3)cc2NC(=O)c2c[nH]c(=O)cc2C(F)(F)F)C[C@H](C)N1C [Example 750, N-[4-fluoro-5-[4-(morpholin-4-ylmethyl)-1,3-thiazol-2-yl]-2-[(3R,5S)-3,4,5-trimethylpiperazin-1-yl]phenyl]-6-oxo-4-(trifluoromethyl)-1H-pyridine-3-carboxamide]  8.77
4. C[C@@H]1CN(c2cc(F)c(-c3cc(F)c(C(=O)N(C)C4CCCCC4)c(F)c3)cc2NC(=O)c2c[nH]c(=O)cc2C(F)(F)F)C[C@H](C)N1C [Example 760, N-(4′-(cyclohexyl(methyl)carbamoyl)-3′,5′,6-trifluoro-4-((3S,5R)-3,4,5-trimethylpiperazin-1-yl)-[1,1′-biphenyl]-3-yl)-6-oxo-4-(trifluoromethyl)-1,6-dihydropyridine-3-carboxamide]  8.70
5. C[C@@H]1CN(c2cc(F)c(-c3cc(F)c(C(=O)N(C)C4CCCC4)c(F)c3)cc2NC(=O)c2c[nH]c(=O)cc2C(F)(F)F)C[C@H](C)N1C [Example 761, N-(4′-(cyclopentyl(methyl)carbamoyl)-3′,5′,6-trifluoro-4-((3S,5R)-3,4,5-trimethylpiperazin-1-yl)-[1,1′-biphenyl]-3-yl)-6-oxo-4-(trifluoromethyl)-1,6-dihydropyridine-3-carboxamide]  8.70
6. C[C@@H]1CN(c2cc(F)c(-c3ccc(C(=O)NC4CCCCC4)c(F)c3)cc2NC(=O)c2c[nH]c(=O)cc2C(F)(F)F)C[C@H](C)N1C [Example 732, N-[5-[4-(cyclohexylcarbamoyl)-3-fluorophenyl]-4-fluoro-2-[(3R,5S)-3,4,5-trimethylpiperazin-1-yl]phenyl]-6-oxo-4-(trifluoromethyl)-1H-pyridine-3-carboxamide]  8.56
7. C[C@@H]1CN(c2nccc(-c3cc(NC(=O)c4c[nH]c(=O)cc4C(F)F)c(N4C[C@@H](C)N(C)[C@@H](C)C4)cc3F)n2)C[C@H](C)O1 [Example 744, 4-(difluoromethyl)-N-[4-fluoro-5-[2-[(2R,6S)-2,6-dimethylmorpholin-4-yl]pyrimidin-4-yl]-2-[(3S,5R)-3,4,5-trimethylpiperazin-1-yl]phenyl]-6-oxo-1H-pyridine-3-carboxamide]  8.56
8. CC(C)OC(=O)N1CCC=C(c2cc(NC(=O)c3c[nH]c(=O)cc3C(F)F)c(N3C[C@@H](C)N(C)[C@@H](C)C3)cc2F)CC1 [Example 723, propan-2-yl 4-[5-[[4-(difluoromethyl)-6-oxo-1H-pyridine-3-carbonyl]amino]-2-fluoro-4-[(3R,5S)-3,4,5-trimethylpiperazin-1-yl]phenyl]-2,3,6,7-tetrahydroazepine-1-carboxylate]  8.51
9. C[C@@H]1CN(c2cc(F)c(C3=CCCN(C(=O)OC4(C)CCC4)CC3)cc2NC(=O)c2c[nH]c(=O)cc2C(F)F)C[C@H](C)N1C [Example 729, (1-methylcyclobutyl) 4-[5-[[4-(difluoromethyl)-6-oxo-1H-pyridine-3-carbonyl]amino]-2-fluoro-4-[(3R,5S)-3,4,5-trimethylpiperazin-1-yl]phenyl]-2,3,6,7-tetrahydroazepine-1-carboxylate]  8.51
10. C[C@@H]1CN(c2nccc(-c3cc(NC(=O)c4ccc(F)cc4C(F)(F)F)c(N4CCN(C)[C@@H](C)C4)cc3F)n2)CCO1 [Example 738, 4-fluoro-N-[4-fluoro-2-[(3S)-3,4-dimethylpiperazin-1-yl]-5-[2-[(2R)-2-methylmorpholin-4-yl]pyrimidin-4-yl]phenyl]-2-(trifluoromethyl)benzamide]  8.40
11. C[C@@H]1CN(c2cc(F)c(-c3ccc(C(=O)NC4CCC(F)(F)CC4)c(F)c3)cc2NC(=O)c2c[nH]c(=O)cc2C(F)(F)F)C[C@H](C)N1C [Example 734, N-[5-[4-[(4,4-difluorocyclohexyl)carbamoyl]-3-fluorophenyl]-4-fluoro-2-[(3R,5S)-3,4,5-trimethylpiperazin-1-yl]phenyl]-6-oxo-4-(trifluoromethyl)-1H-pyridine-3-carboxamide]  8.38
12. C[C@@H]1CN(c2cc(F)c(-c3ccc(C(=O)NCC4CC4)c(F)c3)cc2NC(=O)c2c[nH]c(=O)cc2C(F)(F)F)C[C@H](C)N1C [Example 735, N-[5-[4-(cyclopropylmethylcarbamoyl)-3-fluorophenyl]-4-fluoro-2-[(3R,5S)-3,4,5-trimethylpiperazin-1-yl]phenyl]-6-oxo-4-(trifluoromethyl)-H-pyridine-3-carboxamide]  8.37
13. C[C@@H]1COCCN1c1ncc(-c2cc(NC(=O)c3ccc(F)cc3C(F)(F)F)c(N3CCN(C)[C@@H](C)C3)cc2F)cn1 [Example 737, 4-fluoro-N-[4-fluoro-2-[(3S)-3,4-dimethylpiperazin-1-yl]-5-[2-[(3R)-3-methylmorpholin-4-yl]pyrimidin-5-yl]phenyl]-2-(trifluoromethyl)benzamide]  8.34
14. C[C@@H]1CN(c2cc(F)c(-c3ccc(C(=O)NC4CCCCC4(C)C)c(F)c3)cc2NC(=O)c2c[nH]c(=O)cc2C(F)(F)F)C[C@H](C)N1C (stereo partly drawn) [Example 747, N-[5-[4-[(2,2-dimethylcyclohexyl)carbamoyl]-3-fluorophenyl]-4-fluoro-2-[(3R,5S)-3,4,5-trimethylpiperazin-1-yl]phenyl]-6-oxo-4-(trifluoromethyl)-1H-pyridine-3-carboxamide]  8.31
15. C[C@@H]1CN(c2nccc(-c3cc(NC(=O)c4cn(C)c(=O)cc4C(F)(F)F)c(N4C[C@@H](C)N(C)[C@@H](C)C4)cc3F)n2)C[C@H](C)O1 [Example 743, N-[4-fluoro-5-[2-[(2R,6S)-2,6-dimethylmorpholin-4-yl]pyrimidin-4-yl]-2-[(3R,5S)-3,4,5-trimethylpiperazin-1-yl]phenyl]-1-methyl-6-oxo-4-(trifluoromethyl)pyridine-3-carboxamide]  8.28
16. C[C@@H]1CN(c2nccc(-c3cc(NC(=O)c4cn(C)c(=O)cc4C(F)F)c(N4C[C@@H](C)N(C)[C@@H](C)C4)cc3F)n2)C[C@H](C)O1 [Example 745, 4-(difluoromethyl)-N-[4-fluoro-5-[2-[(2R,6S)-2,6-dimethylmorpholin-4-yl]pyrimidin-4-yl]-2-[(3R,5S)-3,4,5-trimethylpiperazin-1-yl]phenyl]-1-methyl-6-oxopyridine-3-carboxamide]  8.25
17. C[C@@H]1CN(c2cc(F)c(-c3nc(CN4CCOCC4)cs3)cc2NC(=O)c2cn(C)c(=O)cc2C(F)F)C[C@H](C)N1C [Example 741, 4-(difluoromethyl)-N-[4-fluoro-5-[4-(morpholin-4-ylmethyl)-1,3-thiazol-2-yl]-2-[(3R,5S)-3,4,5-trimethylpiperazin-1-yl]phenyl]-1-methyl-6-oxopyridine-3-carboxamide]  8.17
18. C[C@@H]1CN(c2cc(F)c(C3=CCCN(c4ncc(C#N)s4)CC3)cc2NC(=O)c2c[nH]c(=O)cc2C(F)F)C[C@H](C)N1C [Example 731, N-[5-[1-(5-cyano-1,3-thiazol-2-yl)-2,3,6,7-tetrahydroazepin-4-yl]-4-fluoro-2-[(3R,5S)-3,4,5-trimethylpiperazin-1-yl]phenyl]-4-(difluoromethyl)-6-oxo-1H-pyridine-3-carboxamide]  8.12
19. C[C@@H]1CN(c2cc(F)c(C3=CCCN(C(=O)OC4CC(F)(F)C4)CC3)cc2NC(=O)c2c[nH]c(=O)cc2C(F)F)C[C@H](C)N1C [Example 730, (3,3-difluorocyclobutyl) 4-[5-[[4-(difluoromethyl)-6-oxo-1H-pyridine-3-carbonyl]amino]-2-fluoro-4-[(3R,5S)-3,4,5-trimethylpiperazin-1-yl]phenyl]-2,3,6,7-tetrahydroazepine-1-carboxylate]  8.10
20. C[C@@H]1CN(c2cc(F)c(-c3ncc(CN4CCOCC4)s3)cc2NC(=O)c2c[nH]c(=O)cc2C(F)(F)F)C[C@H](C)N1C [Example 751, N-[4-fluoro-5-[5-(morpholin-4-ylmethyl)-1,3-thiazol-2-yl]-2-[(3R,5S)-3,4,5-trimethylpiperazin-1-yl]phenyl]-6-oxo-4-(trifluoromethyl)-1H-pyridine-3-carboxamide]  8.08
21. C[C@@H]1CN(c2cc(F)c(-c3csc(CN4CCOCC4)n3)cc2NC(=O)c2cn(C)c(=O)cc2C(F)F)C[C@H](C)N1C [Example 749, 4-(difluoromethyl)-N-[4-fluoro-5-[2-(morpholin-4-ylmethyl)-1,3-thiazol-4-yl]-2-[(3R,5S)-3,4,5-trimethylpiperazin-1-yl]phenyl]-1-methyl-6-oxopyridine-3-carboxamide]  7.97
22. C[C@@H]1CN(c2cc(F)c(-c3ncc(CN4CCOCC4)s3)cc2NC(=O)c2cn(C)c(=O)cc2C(F)F)C[C@H](C)N1C [Example 748, 4-(difluoromethyl)-N-[4-fluoro-5-[5-(morpholin-4-ylmethyl)-1,3-thiazol-2-yl]-2-[(3R,5S)-3,4,5-trimethylpiperazin-1-yl]phenyl]-1-methyl-6-oxopyridine-3-carboxamide]  7.29
23. C[C@@H]1CN(c2cc(F)c(-c3ccnc(N4CCOCC4)n3)cc2NC(=O)c2cn(C)c(=O)cc2C(F)F)C[C@H](C)N1C [Example 746, 4-(difluoromethyl)-N-[4-fluoro-5-(2-morpholin-4-ylpyrimidin-4-yl)-2-[(3R,5S)-3,4,5-trimethylpiperazin-1-yl]phenyl]-1-methyl-6-oxopyridine-3-carboxamide]  1.87
